Source: ChEMBL document CHEMBL1131194, “Covalent modification of cyclooxygenase-2 (COX-2) by 2-acetoxyphenyl alkyl sulfides, a new class of selective COX-2 inactivators” (J Med Chem, 1998)

Assays:
[1] = target: T1, Prostaglandin G/H synthase 2 (Homo sapiens, UniProt P35354); assay: Inhibitory concentration in DMSO with purified human Prostaglandin G/H synthase 2 (COX-2)
T1 sequence (P35354 whole entry): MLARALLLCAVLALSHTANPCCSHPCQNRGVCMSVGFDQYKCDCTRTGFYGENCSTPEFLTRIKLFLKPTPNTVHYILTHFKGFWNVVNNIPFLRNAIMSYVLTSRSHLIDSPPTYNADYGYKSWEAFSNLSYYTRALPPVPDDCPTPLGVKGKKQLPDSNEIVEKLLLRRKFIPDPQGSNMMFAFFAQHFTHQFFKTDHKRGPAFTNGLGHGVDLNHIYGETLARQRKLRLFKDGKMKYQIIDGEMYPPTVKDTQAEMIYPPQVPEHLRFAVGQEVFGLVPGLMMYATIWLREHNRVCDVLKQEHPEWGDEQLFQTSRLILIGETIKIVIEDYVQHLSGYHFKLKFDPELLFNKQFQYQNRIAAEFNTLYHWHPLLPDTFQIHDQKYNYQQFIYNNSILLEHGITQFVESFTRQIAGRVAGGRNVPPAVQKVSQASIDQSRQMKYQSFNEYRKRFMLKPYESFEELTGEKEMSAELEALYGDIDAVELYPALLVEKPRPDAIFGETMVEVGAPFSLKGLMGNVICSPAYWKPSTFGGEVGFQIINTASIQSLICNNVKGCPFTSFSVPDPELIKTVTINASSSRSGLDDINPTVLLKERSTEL

[2] = target: T2, Prostaglandin G/H synthase 1 (Ovis aries, UniProt P05979); assay: Inhibitory concentration in DMSO with purified ovine Prostaglandin G/H synthase 1 (COX-1).
T2 sequence (P05979 whole entry): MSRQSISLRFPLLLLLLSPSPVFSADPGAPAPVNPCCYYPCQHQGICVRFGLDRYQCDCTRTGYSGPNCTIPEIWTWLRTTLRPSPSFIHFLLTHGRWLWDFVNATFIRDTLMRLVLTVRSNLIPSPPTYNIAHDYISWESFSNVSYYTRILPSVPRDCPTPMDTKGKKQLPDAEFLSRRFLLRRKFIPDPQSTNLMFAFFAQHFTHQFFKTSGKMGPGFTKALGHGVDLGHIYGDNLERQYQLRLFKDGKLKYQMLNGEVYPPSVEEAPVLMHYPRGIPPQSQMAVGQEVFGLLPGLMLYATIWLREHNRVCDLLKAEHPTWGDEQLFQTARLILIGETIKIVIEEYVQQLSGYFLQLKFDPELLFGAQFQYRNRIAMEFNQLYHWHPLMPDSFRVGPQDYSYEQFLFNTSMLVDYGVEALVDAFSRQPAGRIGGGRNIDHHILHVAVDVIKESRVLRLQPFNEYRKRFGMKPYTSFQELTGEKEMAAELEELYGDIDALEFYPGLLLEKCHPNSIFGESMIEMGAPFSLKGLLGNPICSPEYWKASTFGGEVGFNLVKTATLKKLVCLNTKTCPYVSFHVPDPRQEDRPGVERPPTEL

| Compound | IC50 [1] | IC50 [2] |
| --- | --- | --- |
| CCCCC#CCOc1ccccc1OC(C)=O | > 40 µM | > 40 µM |
| CCCCCCCCCSc1ccccc1OC(C)=O | > 40 µM | > 40 µM |
| CC#CCSc1ccccc1OC(C)=O | – | 35 µM |
| CC(=O)Oc1ccccc1SCCCCC#N | > 50 µM | > 50 µM |
| CCCCC#CC(C)Sc1ccccc1OC(C)=O (configuration not stated) | 7 µM | 15 µM |
| CC(=O)Oc1ccccc1SCCCCCCBr | 12 µM | 25 µM |
| CCCCSc1ccccc1OC(C)=O | – | 40 µM |
| CCC(=O)Oc1ccccc1SC | > 1000 µM | > 1000 µM |
| CCCCCCCCSc1ccccc1OC(C)=O | > 40 µM | > 40 µM |
| CC(=O)Oc1ccccc1SC1CCCCCC1 | > 40 µM | > 40 µM |
| CC(=O)Oc1ccccc1SCCc1ccccc1 | – | > 150 µM |
| CC(=O)Oc1ccccc1SCCCCCC(=O)O | 50 µM | 50 µM |
| CCCCCCCN(C)c1ccccc1OC(C)=O | > 40 µM | > 40 µM |
| CC(=O)Oc1ccccc1SCCCCCCI | 10 µM | 70 µM |
| CC(=O)Oc1ccccc1SCc1ccccc1 | – | > 400 µM |
| CCCCC#CCSc1ccccc1OC(=O)CC | > 40 µM | > 40 µM |

| Compound | IC50 [1] | IC50 [2] |
| --- | --- | --- |
| CC(=O)Oc1ccccc1SCCCc1ccccc1 | > 1000 µM | > 1000 µM |
| CC(=O)Oc1ccccc1SCCCCCO | > 50 µM | > 50 µM |
| CSc1ccccc1OC(C)=O | – | > 5000 µM |
| CCCCCCC[S+]([O-])c1ccccc1OC(C)=O (configuration not stated) | > 40 µM | > 40 µM |
| CCCCCCCCc1ccccc1OC(C)=O | > 40 µM | > 40 µM |
| CC(=O)Oc1ccccc1SCCCOc1ccccc1 | > 1000 µM | > 1000 µM |
| CCCCCCCOc1ccccc1OC(C)=O | > 40 µM | > 40 µM |
| CCCOCCCSc1ccccc1OC(C)=O | > 50 µM | > 50 µM |
| CC(=O)OCCCCCSc1ccccc1OC(C)=O | 50 µM | 50 µM |
| CCCCCCC[Se]c1ccccc1OC(C)=O | 12 µM | 12 µM |
| CC(=O)Oc1ccccc1SCCCCC(=O)O | > 50 µM | > 50 µM |
| CCCCC#CCSc1ccccc1OC(C)=O | – | 17 µM |
| CC(=O)Oc1ccccc1SC1CCCCC1 | > 40 µM | > 40 µM |
| CCCC/C=C/CSc1ccccc1OC(C)=O | – | 22 µM |
| CC(=O)Oc1ccccc1SCCCCCBr | 9.5 µM | 34 µM |
| CCCCCCCS(=O)(=O)c1ccccc1OC(C)=O | > 40 µM | > 40 µM |
